The values that follow come from patent US20220323383A1, “SMALL-MOLECULAR ADJUVANTS AND IMPLEMENTATIONS THEREOF” (JAWAHARLAL NEHRU CENTRE FOR ADVANCED SCIENTIFIC RESEARCH, priority 2019, published 2022).

Common to all, as to format: cell-based
In series [1] the test system is A. baumannii R674. In words: Chequerboard combination efficacy of adjuvant with antibiotics. The protocol:
(§1) All the solvents were of reagent grade, which were distilled and dried before its use. All the reagents were purchased from Sigma-Aldrich, Alfa-Aesar, S.D. Fine, Avra and Spectrochem, and were used without further purification. Analytical thin layer chromatography (TLC) was performed on E. Merck TLC plates pre-coated with silica gel 60 F254 and visualization was carried out using UV light and Iodine. Column chromatography was performed on silica gel (60-120 mesh) using different ratio of chloroform and methanol solvent system. Nuclear magnetic resonance spectra were recorded on Bruker (AV-400) 400 MHz spectrometer in deuterated solvents. Mass spectra were obtained using 6538-UHD Accurate mass Q-TOF LC-MS instrument. For optical density measurement during bacteriology experiments, Tecan Infinite Pro series M200 Microplate Reader was used. Bacterial strains, A. baumannii (R674), P. aeruginosa (R590), E. coli (R3336) and K. pneumoniae (R3934) were used for the studies.
(§2) The combination efficacy with antibiotics from different classes and individual antibacterial activity of the synthesized adjuvants was evaluated against the above mentioned MDR and NDM-1 strains of Gram-negative bacteria. All the bacteria were grown in peptone. The bacterial samples were freeze dried and stored at −80° C. 3 μl of these stocks were added to 3 mL of peptone and the culture was grown for 6 h at 37° C. prior to the experiments.
(§3) All synthesized compounds were assayed for their antibacterial activity in combination with antibiotics in a modified chequerboard micro-dilution broth format. Stock solutions were made by serially diluting the compounds using autoclaved millipore water. The bacterial freeze dried stock samples were stored at −80° C. About 3 μL of these stocks were added to about 3 mL of the respective broth and the culture was grown for about 6 h at about 37° C. with prior to the experiments. This 6 h grown culture gives about 10^8 cfu/mL in case of A. baumannii R674, P. aeruginosa R590, E. coli R3336 and K. pneumoniae R3934 which were determined by spread plating method. This 6 h grown culture was diluted to give effective cell concentration of 10^5 cfu/mL, and then used for the chequerboard assay. Adjuvants and antibiotics were serially diluted in two-fold, in sterile millipore water. 25 μL of these serial dilutions of the antibiotics and 25 μL of compounds were added to the wells of 96 well plate followed by the addition of about 150 μL of bacterial solution (˜10^5 cfu/mL). The plates were then incubated at about 37° C., 150 rpm in the incubator and O.D at 600 nm was recorded at 24 h using TECAN (Infinite series, M200 pro) Plate Reader. The wells with similar OD as the media control contained the required concentration of the antibiotic and adjuvant for antibacterial efficacy. The potentiation ability of the adjuvants was determined by calculating the potentiation factor and the Fractional Inhibitory concentration (FIC) index. Fractional Inhibitory Concentration (FIC) is expressed as, FIC=[X]/MICX, where [X] is the lowest inhibitory concentration of antibiotic in the presence of the adjuvant. Whereas FIC index is expressed as, FICI=FICantibiotic+FICadjuvant. The values of FIC index give an insight about the nature of the combination. Potentiation factor which means fold-reduction in the MIC of the antibiotic, when used in combination with the adjuvant was also determined. Potentiation factor=[Minimum inhibitory concentration (MIC) of antibiotic in absence of adjuvant]/[MIC of antibiotic in presence of adjuvant]. […] The combination efficacies of adjuvants with various antibiotics are furnished in Table 1. It should be noted that various other resistant strains of bacteria (Gram-positive and Gram-negative) can be tested with a number of other antibiotics to check the potentiation capacity of the adjuvants.

Series [2] has as its system P. aeruginosa R590. The series is described as above. The settings on record: P. aeruginosa R590. On the procedure: as §1, §2, §3
In a further series the test system is human RBCs. In words: Haemolytic activity. The following applies: concentration at which 50% of human blood cells are lysed; 1 h at 37° C. On the procedure: Erythrocytes were isolated from freshly drawn, heparanized human blood and re-suspended to 5 vol % in PBS (pH 7.4). In a 96-well microtiter plate, 150 μl of erythrocyte suspension was added to 50 μl of serially diluted compound. Two controls were made, one without compound and other with 50 μl of 1 vol % solution of Triton X-100. The plate was incubated for 1 h at 37° C. The plate was then centrifuged at 3,500 rpm for 5 min, 100 μl of the supernatant from each well was transferred to a fresh 96-well microtiter plate, and A540 was measured. Percentage of hemolysis was determined as (A−A0)/(Atotal−A0)×100, where A is the absorbance of the test well, A0 the absorbance of the negative controls (without compound), and Atotal the absorbance of 100% hemolysis wells (with Triton X-100), all at 540 nm.
Toxicity studies of the compounds were done on freshly drawn human RBCs. Toxicity of the compounds were defined by their HC50 values (Table 2), i.e. the concentration of compound at which 50% of the blood cells are lysed.

For series [3], the system named is A. baumannii R674. The experiment in a line: Individual antibacterial activity (MIC) of adjuvants. The following applies: adjuvant alone; A. baumannii R674. The protocol:
as §2, §3

Series [4] has as its system P. aeruginosa R590. The series is described as above. The following applies: adjuvant alone; P. aeruginosa R590. The protocol:
as §2, §3

Some results are limits rather than exact numbers.

In general, HC50 refers to the concentration that lyses half of the red blood cells. Read a high HC50 as weaker haemolysis.

Turning to `NCCCC[C@H](N)C(=O)NCCCN(CCCNC(=O)[C@@H](N)CCCCN)C(=O)CC(c1ccccc1)c1ccccc1` [Compound 8, N,N-bis-[(6-(^LLys)amido)propyl] 3,3-diphenyl propanamide tetrakis(trifluoroacetate)], the results for the FICI with A. baumannii R674 [1] (antibiotic Rifampicin), with P. aeruginosa R590 [2] (antibiotic Rifampicin) and with P. aeruginosa R590 [2] (antibiotic Tetracycline) were below 0.19, below 0.14 and below 0.375, respectively. The “MIC of antibiotic in presence of adjuvant” value (from here on “MIC of antibiotic”) is 4 µg/mL in the series on A. baumannii R674 [1] (antibiotic Rifampicin), above 64 µg/mL in the series on A. baumannii R674 [1] (antibiotic Tetracycline), 2 µg/mL in the series on P. aeruginosa R590 [2] (antibiotic Rifampicin) and 64 µg/mL in the series with P. aeruginosa R590 [2] (antibiotic Tetracycline). The Potentiation factor is given as 16 in the series with A. baumannii R674 [1] (antibiotic Rifampicin), below 2 with A. baumannii R674 [1] (antibiotic Tetracycline), 64 with P. aeruginosa R590 [2] (antibiotic Rifampicin) and 4 with P. aeruginosa R590 [2] (antibiotic Tetracycline). Moreover, the HC50 in the series with human RBCs was above 1024 µg/mL. Besides, the “MIC against clinical isolates of bacteria” value (“MIC … of bacteria” below) in the series with A. baumannii R674 [3] and in the series with P. aeruginosa R590 [4] was above 512 µg/mL in each case.
On to `NCCCC[C@H](N)C(=O)NCCCN(CCCNC(=O)[C@@H](N)CCCCN)CC(=O)NC1C2CC3CC(C2)CC1C3.O=C(O)C(F)(F)F.O=C(O)C(F)(F)F.O=C(O)C(F)(F)F.O=C(O)C(F)(F)F.O=C(O)C(F)(F)F` (stereo partly shown) [Compound 9], for which the FICI in the series on A. baumannii R674 [1] (antibiotic Rifampicin) is below 0.14; in the series with A. baumannii R674 [1] (antibiotic Tetracycline) it was below 0.25; in the series on P. aeruginosa R590 [2] (antibiotic Rifampicin) it was below 0.13; in the series on P. aeruginosa R590 [2] (antibiotic Tetracycline) it was below 0.19. Moreover, the “MIC of antibiotic” value in the series with A. baumannii R674 [1] (antibiotic Rifampicin) was 1 µg/mL; in the series on A. baumannii R674 [1] (antibiotic Tetracycline), 16 µg/mL; with P. aeruginosa R590 [2] (antibiotic Rifampicin) it was 0.5 µg/mL; in the series with P. aeruginosa R590 [2] (antibiotic Tetracycline) it was 16 µg/mL. Also, the Potentiation factor was 64 in the series on A. baumannii R674 [1] (antibiotic Rifampicin), 8 in the series with A. baumannii R674 [1] (antibiotic Tetracycline), 256 in the series on P. aeruginosa R590 [2] (antibiotic Rifampicin) and 16 in the series with P. aeruginosa R590 [2] (antibiotic Tetracycline). This compound also registered an HC50 in the series on human RBCs above 1024 µg/mL. Further, the “MIC … of bacteria” value in the series with A. baumannii R674 [3] and with P. aeruginosa R590 [4] was above 512 µg/mL throughout.
`NCCCCCCN(CCCCCCN)C(=O)Cc1cccc2ccccc12` [Compound 10, N,N-bis-[(6-amino)hexyl] naphthyl ethanamide bistrifluoroacetate]: the FICI is below 0.14 in the series with A. baumannii R674 [1] (antibiotic Rifampicin), below 0.375 in the series with A. baumannii R674 [1] (antibiotic Tetracycline), below 0.133 in the series with P. aeruginosa R590 [2] (antibiotic Rifampicin) and below 0.375 with P. aeruginosa R590 [2] (antibiotic Tetracycline). The “MIC of antibiotic” value is 1 µg/mL in the series with A. baumannii R674 [1] (antibiotic Rifampicin), 16 µg/mL with A. baumannii R674 [1] (antibiotic Tetracycline), 1 µg/mL in the series on P. aeruginosa R590 [2] (antibiotic Rifampicin) and 32 µg/mL in the series on P. aeruginosa R590 [2] (antibiotic Tetracycline). Besides, the Potentiation factor with A. baumannii R674 [1] (antibiotic Rifampicin) was found to be 64; with A. baumannii R674 [1] (antibiotic Tetracycline) it was 8; in the series on P. aeruginosa R590 [2] (antibiotic Rifampicin) it was 128; in the series with P. aeruginosa R590 [2] (antibiotic Tetracycline), 8. Also, in the series on human RBCs, the HC50 is above 1024 µg/mL. Moreover, the “MIC … of bacteria” value with A. baumannii R674 [3] and in the series with P. aeruginosa R590 [4] was above 512 µg/mL each time.
As for `NCCCCCCN(CCCCCCN)C(=O)CC(c1ccccc1)c1ccccc1.O=C(O)C(F)(F)F.O=C(O)C(F)(F)F` [Compound 11, N,N-bis-[(6-amino)hexyl] 3,3-diphenyl propanamide bistrifluoroacetate], the FICI in the series with A. baumannii R674 [1] (antibiotic Rifampicin) amounted to 0.1328; in the series with A. baumannii R674 [1] (antibiotic Tetracycline), 1; in the series with P. aeruginosa R590 [2] (antibiotic Rifampicin), 0.07; in the series on P. aeruginosa R590 [2] (antibiotic Tetracycline), 0.375. Also, the “MIC of antibiotic” value was found to be 0.5 µg/mL in the series with A. baumannii R674 [1] (antibiotic Rifampicin), 64 µg/mL in the series with A. baumannii R674 [1] (antibiotic Tetracycline), 1 µg/mL in the series with P. aeruginosa R590 [2] (antibiotic Rifampicin) and 32 µg/mL in the series on P. aeruginosa R590 [2] (antibiotic Tetracycline). Moreover, the Potentiation factor with A. baumannii R674 [1] (antibiotic Rifampicin) stood at 128; in the series on A. baumannii R674 [1] (antibiotic Tetracycline) it was 2; in the series on P. aeruginosa R590 [2] (antibiotic Tetracycline) it was 8. In addition, in the series with human RBCs, the HC50 was above 1024 µg/mL. For the same compound, the “MIC … of bacteria” value in the series on A. baumannii R674 [3] is 128 µg/mL; in the series with P. aeruginosa R590 [4], 256 µg/mL.
As to `NCCCCCCN(CCCCCCN)CC(=O)NC1C2CC3CC(C2)CC1C3.O=C(O)C(F)(F)F.O=C(O)C(F)(F)F.O=C(O)C(F)(F)F` (stereo not shown) [Compound 12, N-(adamantan-2-yl)-2-[N′,N′-{bis-(6-amino)hexyl}amino] ethanamide tristrifluoroacetate], the FICI is below 0.252 with A. baumannii R674 [1] (antibiotic Rifampicin), 0.625 in the series on A. baumannii R674 [1] (antibiotic Tetracycline), 0.251 with P. aeruginosa R590 [2] (antibiotic Rifampicin) and 0.75 with P. aeruginosa R590 [2] (antibiotic Tetracycline). Further, the “MIC of antibiotic” value is below 0.125 µg/mL in the series on A. baumannii R674 [1] (antibiotic Rifampicin), 16 µg/mL in the series with A. baumannii R674 [1] (antibiotic Tetracycline), 0.125 µg/mL in the series on P. aeruginosa R590 [2] (antibiotic Rifampicin) and 64 µg/mL in the series on P. aeruginosa R590 [2] (antibiotic Tetracycline). Further, the Potentiation factor is listed as above 512 with A. baumannii R674 [1] (antibiotic Rifampicin), 8 with A. baumannii R674 [1] (antibiotic Tetracycline), 1024 in the series on P. aeruginosa R590 [2] (antibiotic Rifampicin) and 4 with P. aeruginosa R590 [2] (antibiotic Tetracycline). Moreover, the HC50 in the series with human RBCs was above 1024 µg/mL. Also, the “MIC … of bacteria” value in the series with A. baumannii R674 [3] and with P. aeruginosa R590 [4] was 64 µg/mL throughout.
